{"source": "patent US9404927B2", "about": "“Systems and methods for diagnosing and treating cancer” (The Translational Genomics Research Institute, priority 2013, dated 2016)", "key": {"[1]": {"system": "HGF-induced Fn14 expression in H2073 cells", "assay": "Immunoblot of HGF-induced Fn14 expression in serum starved H2073 cells", "type": "cell-based, human", "conditions": "for HGF-induced Fn14 expression: inhibitor 10 μM pre-treated 30 minutes, then HGF (20 ng) three hours", "experimental": "FIGS. 5A and 5B illustrate that inhibition of MEK or ERK abrogates HGF-induced expression of Fn14. (FIG. 5A) Serum starved H2073 cells pre-treated with either vehicle, U0126, or LY294002 for 30 minutes were exposed to HGF (20 ng) for three hours. Cells were harvested, total cell lysates were prepared and immunoblotted with antibodies to Fn14. Tubulin was used as a loading control. (FIG. 5B) H1993 cells were treated with either vehicle or U0126 for three hours Immunoblots for phosphorylated ERK1/2 (pERK1/2) and Fn14 were performed with tubulin used as a loading control.\nHuman NSCLC cell lines H2073 and H1993 (American Type Culture Collection, Manassas, Va.) and mouse cell lines CMT64 and CMT167 (Sigma-Aldrich, St. Louis, Mo.) were maintained in RPMI 1640 (Invitrogen, Carlsbad, Calif.) and DMEM (Invitrogen), respectively, supplemented with 10% heat-inactivated fetal bovine serum (FBS) in a 37° C., 5% CO2 atmosphere. For the HGF stimulation, cells were placed in RPMI 1640 without FBS for 18 hours prior to growth factor exposure.\nHGF was purchased from Millipore (Billerica, Mass.). SU11274 and U0126 were purchased from Selleck Chemicals (Houston, Tex.). LY294002 was purchased from Tocris Biosciences (R&D Systems, Minneapolis, Minn.). The final concentrations of inhibitors were SU11274 (2 μM), U0126 (10 μM), and LY294002 (10 μM). Antibodies for immunblot analysis against Fn14, c-Met, and phosphorylated c-Met were purchased from Cell Signaling Technology (Danvers, Mass.), while alpha-tubulin was purchased from Millipore. Immunoblot analysis was performed as previously described (Whitsett T G, et al. (2012) Elevated expression of Fn14 in non-small cell lung cancer correlates with activated EGFR and promotes tumor cell migration and invasion. Am J Pathol 181 1): 111-20)."}, "[2]": {"system": "Fn14 protein expression in H1993 cells", "assay": "Immunoblot of Fn14 in H1993 cells treated with inhibitors", "type": "cell-based, human", "conditions": "immunoblot vs vehicle", "experimental": "FIGS. 4A-4C illustrate that c-Met amplification enhances Fn14 expression levels in NSCLC cell lines. (FIG. 4A) Total cell lysates were prepared from CMT64 and CMT167 cell lines and immunoblotted with the indicated antibodies. Tubulin was used as a loading control. (FIG. 4B) Total cell lysates were prepared from H2073 (primary adenocarcinoma NSCLC cell line) and H1993 (patient-matched metastatic cell line with known c-Met amplification) and immunoblotted with the indicated antibodies. Tubulin was used as a loading control. (FIG. 4C) H1993 cells were treated with vehicle or SU11274 for 24 hr. Cells were harvested, total cell lysates were prepared and immunoblotted with an antibody against Fn14. Tubulin was used as a loading control. FIGS. 5A and 5B illustrate that inhibition of MEK or ERK abrogates HGF-induced expression of Fn14. […] Cells were harvested, total cell lysates were prepared and immunoblotted with antibodies to Fn14. Tubulin was used as a loading control. […] Human NSCLC cell lines H2073 and H1993 (American Type Culture Collection, Manassas, Va.) and mouse cell lines CMT64 and CMT167 (Sigma-Aldrich, St. Louis, Mo.) were maintained in RPMI 1640 (Invitrogen, Carlsbad, Calif.) and DMEM (Invitrogen), respectively, supplemented with 10% heat-inactivated fetal bovine serum (FBS) in a 37° C., 5% CO2 atmosphere. […]"}}, "data": [{"compound": "O=c1cc(N2CCOCC2)oc2c(-c3ccccc3)cccc12", "note": "[LY294002]", "values": [{"measurement": "HGF-induced Fn14 expression", "setting": "[1]", "result": "no effect"}]}, {"compound": "Cc1[nH]c(/C=C2\\C(=O)Nc3ccc(S(=O)(=O)N(C)c4cccc(Cl)c4)cc32)c(C)c1C(=O)N1CCN(C)CC1", "note": "[SU11274]", "values": [{"measurement": "Fn14 protein expression", "setting": "[2]; SU11274 2 μM, 24 hr", "result": "inhibition of the Fn14 protein expression"}]}, {"compound": "N#CC(=C(/N)Sc1ccccc1N)/C(C#N)=C(\\N)Sc1ccccc1N", "note": "[U0126]", "values": [{"measurement": "Fn14 protein expression", "setting": "[2]; U0126 10 μM, three hours", "result": "significantly decreased"}, {"measurement": "HGF-induced Fn14 expression", "setting": "[1]", "result": "completely abrogated"}]}, {"compound": "HGF: hepatocyte growth factor, cognate ligand of c-Met, purchased from Millipore", "values": [{"measurement": "protein expression of Fn14 on exposure to HGF", "setting": "[1]; HGF (20 ng), three hours", "result": "enhanced"}]}]}
